From patent US11129782B2, “Derivatives of PPD useful for coloring hair and skin” (National University of Singapore, priority 2017, dated 2021)
“And” between values parts separate entries of the source, which are not always exact repeats. Equal entries are not always repeated.

Legend:
[1] = Skin permeation in vertical Franz diffusion cells; format: in vitro ADME, porcine; details: 8 h; for Penetration profile PPD vs derivatives (times less than PPD): ratio of PPD penetration to that of the compound
Procedure: Porcine ears were generously provided by the NUS Department of Surgery. The ears were frozen at −80° C. until use (up to 3 months) and thawed at room temperature on the day preceding the experiment. Prior to the experiment, the skin was separated from the cartilage and dermatomed to a thickness of ˜1.0 mm using an Acculan™ 3Ti dermatome (Aesculap, Inc., B. Braun, USA).
The PPD and derivatives were dissolved in deionized water at 1% w/v. The PPD and PPD derivatives 1-5 solutions were purged with argon gas to minimize oxidation of the donor solution.
Skin penetration studies were carried out using vertical Franz diffusion cells (PermeGear, USA) immersed in a 37° C. water bath. The donor and receptor volumes were 900 µL and 5 mL, respectively; the mean surface area of penetration was 0.64 cm^2. Upon insertion of the skin pieces into the Franz cells, the skin was equilibrated for 45 min with PBS in the receptor compartment. After equilibration, the skin's trans-epidermal water loss (TEWL) was measured using an Aquaflux AF300 (Biox, UK) to assess the integrity of the skin's stratum corneum barrier. The donor solution, consisting of PPD or derivative 1-5 (n=3 Franz cells each), was then added to the donor compartment and the penetration experiments were conducted for 8 h. The receptor solutions were continuously stirred with magnetic stirrers. At fixed time points, aliquots of 200 μL were taken from the receptor solution of each cell and the receptor solution topped up with 200 μL of fresh PBS. At the end of the experiment, the donor and receptor solutions were removed and the cells dismantled. For the purpose of mass balance on the PPD, PPD derivatives 1-5 the skin pieces and swabs of their outer surfaces were collected and stored in acetonitrile for PPD or derivative 1-5 extraction. The donor solution as well as PBS used to thoroughly wash each part of the Franz cells were also collected.
PPD, PPD derivatives 1-5 and metabolite concentrations in all permeation and mass balance samples were measured by LCMS. PPD steady state fluxes and permeability coefficients were calculated by fitting the solution to Fick's second law of diffusion at the steady state to the linear part of each experimental cumulative amount curve.
The validated method LCMS was applied to quantify PPD, PPD derivative 1-5 and metabolites from skin permeation study samples. FIGS. 3 and 4 show LCMS spectra for the identification of PPD and PPD derivatives 1 and 2 and metabolites from skin permeation study experiment.

HaCaT cells = experiment: In vitro cell cytotoxicity (MTT) assay on HaCaT cells; format: cell-based, human
Description: HaCaT (human, adult, low calcium, high temperature, human adult skin keratinocytes) cells were obtained from the IMB (Institute of Medical Biology) Skin Cell Bank. Fetal bovine serum (FBS), Dulbecco's minimum essential medium (DMEM) and trypsin EDTA solution were purchased from GE healthcare life sciences, Utah. Penicillin/streptomycin, dimethyl sulfoxide (DMSO), and phosphate buffered saline (PBS) were from Fisher Scientific (Singapore). Para-phenylenediamine (PPD) was purchased from Sigma Aldrich (Singapore). PPD analogues such as Dimer, trimer, ethyl hexyl para-phenylenediamine (EHPPD), hexyl para-phenylenediamine (HPPD), Bandrowski base (BB) were synthesized in house.
Cell viability was essentially determined using the MTT assay as described in the literature. The HaCaT cells were grown in DMEM with 10% FBS and 1% penicillin/streptomycin. The cells in T-75 cm^2 culture flasks were incubated with 5% CO2 at 37° C. in a humidified incubator. The HaCaT cells were grown to expected confluency and then they were harvested by trypsinizing the cell with 0.25% trypsin/EDTA and incubated at 37° C. for 5 min to obtain the complete cell detachment. After the incubation, cell pellets were resuspended, and washed twice with 1×PBS. The cell suspension in 1×PBS was counted and adjusted to 1×10^5/mL. A HaCaT keratinocyte suspension (100 μL in 1×PBS) with a cell concentration of 1×10^5 cells/mL) and a test solution (100 μL in milli-Q water) were combined in each well of two 96-well plates. Test solutions with a desired concentration were prepared by serial dilutions of the stock solutions with 1×PBS.
For the cytotoxicity experiment, cells were seeded at a density of 5×10^3 in 200 ul of medium into each well of 96-well plates. Cells were seeded as three sets of four replicates for each concentration. After 24 h of incubation, the cells were washed with PBS and cultured for 72 h with 200 ul of 10% FBS containing DMEM medium, together with the different concentrations of the test compounds ranging from 500 μM to 1.9 μM for PPD and analogues 1-5 and standard in a serial dilution. Then the medium was removed and 100 μl of MTT [3-(4,5-dimethylthiazol-2yl)-2,5-diphenyl-2H-tetrazolium bromide](1 mg/ml) (Alfa Aesar, Singapore) in PBS was added. At the end of 4 h incubation, the plates were removed from the incubator and plates were shaken for 5 min. The absorbance at 570 nm was determined using Bio-Tek plate reader. The cell viability rates were calculated from absorbance readings and represented as percentages of control value (untreated cells).

IL-8 = IL-8 ELISA on THP-1 cell supernatants; format: cell-based, human; details: preliminary ELISA, CV75
Procedure: (§1) For cytokine profiling in THP-1, supernatants from wells were collected and then used for cytokine analysis by a Chemokine immunosorbent assay Bio-legend ELISA Max kit. The levels of available IL-8 protein from THP-1 cell supernatants was estimated using this kit which are regulated upon activation of THP-1 model. Surface receptor expression of human CD-86, CD-54, MHC-I and IL-T3 were analyzed by flow cytometry using standard BD FACS analyzer with PE and FITC fluorescent labeled antibodies from Biolegend and e Bioscience.
(§2) In order to understand the effect of modified PPD hairdyes on THP-1 immune sensitization, a certain degree of Cytotoxicity at CV75% viable where 25% cell death is required before evaluation of supernatants in THP-1 models for expression of cytokine IL-8 and receptor expression of CD86, CD54, MHC-I and IL-T3 surface receptors upon treatment with standard PPD and modified hair dye compounds. Most allergens show a specific dose-dependent alteration of CD86 and/or CD54 expression or secretion of cytokine profiles. But depending on chemical, the alteration pattern may vary.

ILT3 = ILT3 surface expression on THP-1 by flow cytometry; format: cell-based, human; details: in comparison to DCNB
Procedure: as §1, §2

[2] = test system: cysteine and lysine peptides; experiment: Direct Peptide Reactivity Assay, mean of cysteine and lysine depletion (FIG. 12)
Procedure: Direct reactivity of test chemical to lysine-based synthetic peptide was determined in reactions containing 100 mM ammonium acetate buffer (pH 10.2). The final concentration of lysine peptide was 20 μM in a final reaction volume of 0.3 ml. Direct reactivity of test chemicals to cysteine-based synthetic peptide was determined in 100 mM Sodium Phosphate buffer of pH 7.5.
For the DPRA, incubation mixtures were prepared using each peptide to test compound ratios of both 1:10 for cysteine peptide and 1:50 for lysine peptide, according to Table 19. […] Sample reactions were initiated by adding 3 μl of a test chemical stock solution for cysteine and 15 μl stock solution for lysine peptide. These mixtures were then placed in a temperature-controlled shaking incubator at 25° C.
At each time point (20 mins/24 hours), the incubation mixtures were quenched with 75 μL of 95% ACN/H2O, and mildly vortexed (600 rpm, 3 seconds). For Lysine DPRA experiment, 10 μl of aliquot was diluted with 2% ACN/H2O, vortexed and stored at −80° C. until analysis by LC-MS/MS. For cysteine DPRA, an additional step was performed. 10 μl of cysteine reaction mixture, at time points 20 min and 24 h were diluted in 180 μl of 2% ACN/H2O. To which, a 10 μl aliquot of a 16 mM dithiothreitol solution (prepared in water) was then added, and samples were heated in a 45° C. oven for 30 min, then allowed to cool to room temperature prior to analysis. The peptide depletion (PD) percentage was obtained using this equation.

Structure (SMILES)	% Parent compound Penetrated (mean) ([1]; 1% W/V applied)	% Parent compound Recovery (mean) ([1]; 1% W/V applied)	% converted to metabolite (mean) ([1]; 1% W/V applied)	Penetration profile PPD vs derivatives (times less than PPD) [1]	Penetration profile PPD vs derivatives (times less than PPD) ([1]; listed as ME-PPD)	Fold increase in IC50 compared to PPD (HaCaT cells)	IC50 (HaCaT cells; 72 h incubation, MTT)	IL-8 expression (IL-8)	ILT3 (inhibitory receptor) expression (ILT3)	Sensitizing potential predicted from mean peptide depletion ([2]; cysteine 1:10 / lysine 1:50 model)	Mean peptide depletion ([2]; mean of cysteine (1:10) and lysine (1:50), FIG. 12)
COCc1cc(N)ccc1N [MEPPD, 2-(methoxymethyl)benzene-1,4,-diamine, reference compound]	0.02%	95.39%	0.019%	8 and 8.1	about 7.5	19 fold	544 µM	increased expression	increased	strong sensitizer	53.2%
O=[N+]([O-])c1ccc(Cl)c([N+](=O)[O-])c1 [DNCB, reference compound]	–	–	–	–	–	–	–	increased expression	–	–	–
